Assay [1] concerns T-cell. The assay can be described thus: IL-2 secretion from T-cells stimulated with anti-CD3 antibody alone (Biological Example 2). Format: cell-based, human. Conditions: T-cell, fold change over baseline, primary human total T-cells, read-out: IL-2 secretion Anti-CD3 stimulation; for fold induction at 1 µM: 1 μM Cbl-b inhibitor; for fold induction at 8 µM: 8 μM Cbl-b inhibitor.

Assay [2] concerns T-cell. Briefly: CD25 cell surface staining on T-cells stimulated with anti-CD3 antibody alone (Biological Example 2). Format: cell-based, human. Conditions: T-cell, fold change over baseline, primary human total T-cells, read-out: CD25 staining Anti-CD3 stimulation; for fold induction at 1 µM: 1 μM Cbl-b inhibitor; for fold induction at 8 µM: 8 μM Cbl-b inhibitor.
For the next assay, the system named is anergic human T-cells. Briefly: Anergic T-cell activation assessed by IFNγ secretion (ionomycin-induced anergy). The assay is classed as cell-based. Conditions: anergic T-cells re-challenged with anti-CD3 and anti-CD28 for 24 hours, read-out: IFNγ Fold change from baseline. The source says: Peripheral blood mononuclear cells (PBMC) were obtained either: 1) by using Ficoll-Paque™ (GE Healthcare) for separation of peripheral blood hematopoietic cells from buffy coats of healthy human donors; or 2) directly from LeukoPak donations. Total human primary T-cells were isolated from the PBMCs utilizing negative selection with commercial kits following the manufacturer's protocol (Miltenyi Catalog #130-096-535 (i.e., cocktail of antibodies against surface markers CD14, CD15, CD16, CD19, CD34, CD36, CD56, CD123 and CD235a were incubated with the PBMCs before passing the samples by magnetic beads for removal of cells expressing those surface markers) or StemCells Catalog #17951) to yield >95% CD3+ cells assessed by flow cytometry. The cells were activated with immobilized anti-CD3 antibody (OKT3) and soluble anti-CD28 antibody (28.2) for two days at which time they are washed and allowed to rest for three days in the absence of stimulation. They were then treated with ionomycin (Sigma) for 18-24 hours to induce anergy. Following two washes to remove the ionomycin from the samples, Cbl-b inhibitor compounds were added to the cells at the indicated concentrations (e.g. 10, 1.11 and 0.37 μM) and incubated for 1 hour. The cells were then re-challenged with anti-CD3 antibody and anti-CD28 antibody for 24 hours at which point cell free supernatants were collected and assessed for cytokines (e.g., IFNγ) by ELISA (R&D Systems or Peprotech) or Luminex multiplex kits (Procarta Life Technologies) following manufacturer's protocols.
Cbl-b inhibitors were tested to determine their ability to induce or enhance secretion of cytokines from anergic T-cells (e.g. IFNγ), which is indicative of decreased T-cell tolerance.
Readouts were reported as fold change over baseline. Baseline for this study was the measurement obtained from anergic human T-cells stimulated with immobilized anti-CD3 and soluble anti-CD28, wherein the T-cells were not incubated with a Cbl-b inhibitor (Table 7). For IFNγ changes greater than 2.5-fold over baseline were considered a positive response (Table 7). Compounds were ranked into bins according to their readout as follows for IFNγ: A indicates ≤2.50, B indicates 2.51-4.00 and C indicates >4.01.

In assay [3] the test system is T-cell. The assay can be described thus: CD25 cell surface staining on T-cells stimulated with anti-CD3 antibody alone (Biological Example 2). The assay is classed as cell-based. Conditions: primary human total T-cells, baseline = anti-CD3/anti-CD28 stimulated cells without inhibitor, read-out: CD25 staining, Anti-CD3 stimulation, fold change over baseline; for fold induction at 1 µM: 1 μM compound; for fold induction at 8 µM: 8 μM compound.

Each structure is given as a SMILES string.

From patent US20220324835A1 (Nurix Therapeutics, Inc., priority 2018, published 2022) come the findings set out here.

As to `Cn1cnnc1CC1(c2cccc(NC(=O)c3nc4c(C(F)(F)F)cccc4[nH]3)c2)COC1` [Compound 335, N-(3-{3-[(4-methyl-1,2,4-triazol-3-yl)methyl]oxetan-3-yl}phenyl)-4-(trifluoromethyl)-1H-1,3-benzodiazole-2-carboxamide], in the assay on T-cell [1], the fold induction at 1 µM lay in the range of 0.101 to 0.15 and the fold induction at 8 µM is above 0.201. Besides, in the assay with T-cell [2], the fold induction at 1 µM was in the range of 0.801 to 1 and the fold induction at 8 µM was above 1. In addition, in the assay with anergic human T-cells, the fold induction at 0.37 µM is at most 2.5, the fold induction at 1.11 µM fell in the range of 2.51 to 4 and the fold induction at 10 µM was above 4.01.

In the case of `Cc1cc(C(=O)Nc2cccc(C3(Cc4nncn4C)COC3)c2)nc(C2CC2)n1` [Compound 336, 2-cyclopropyl-6-methyl-N-(3-(3-((4-methyl-4H-1,2,4-triazol-3-yl)methyl)oxetan-3-yl)phenyl)pyrimidine-4-carboxamide], in the assay on T-cell [1], the fold induction at 1 µM was above 0.201 and the fold induction at 8 µM was above 0.201. Moreover, in the assay with T-cell [2], the fold induction at 1 µM was above 1 and the fold induction at 8 µM is above 1. In addition, in the assay with anergic human T-cells, the fold induction at 0.37 µM was in the range of 2.51 to 4, the fold induction at 1.11 µM was in the range of 2.51 to 4 and the fold induction at 10 µM was above 4.01.

Turning to `Cc1n[nH]c(C)c1-c1cc2c(c(C(F)(F)F)c1)CN(c1cccc(C3(Cc4nncn4C)COC3)c1)C2=O` [Compound 385, 6-(3,5-dimethyl-1H-pyrazol-4-yl)-2-(3-{3-[(4-methyl-4H-1,2,4-triazol-3-yl)methyl]oxetan-3-yl}phenyl)-4-(trifluoromethyl)-2,3-dihydro-1H-isoindol-1-one], in the assay with anergic human T-cells, the fold induction at 0.37 µM was at most 2.5, the fold induction at 1.11 µM is at most 2.5 and the fold induction at 10 µM is above 4.01. For the same compound, in the assay on T-cell [3], the fold induction at 1 µM was above 1 and the fold induction at 8 µM was above 1.

For the compound `C[C@H](Cc1nncn1C)c1cccc(N2Cc3c(cc(CN4CC(O)C4)cc3C(F)(F)F)C2=O)c1` [Compound 393, (R)-6-((3-hydroxyazetidin-1-yl)methyl)-2-(3-(1-(4-methyl-4H-1,2,4-triazol-3-yl)propan-2-yl)phenyl)-4-(trifluoromethyl)isoindolin-1-one], in the assay on anergic human T-cells, the fold induction at 0.37 µM is at most 2.5, the fold induction at 1.11 µM was in the range of 2.51 to 4 and the fold induction at 10 µM is above 4.01. Moreover, in the assay on T-cell [3], the fold induction at 1 µM was above 1 and the fold induction at 8 µM is above 1.

With `C[C@H](Cc1nncn1C)c1cccc(N2Cc3c(cc(CN4CC(C)(O)C4)cc3C(F)(F)F)C2=O)c1` [Compound 397], in the assay on anergic human T-cells, the fold induction at 0.37 µM is at most 2.5, the fold induction at 1.11 µM was above 4.01 and the fold induction at 10 µM is above 4.01. Also, in the assay on T-cell [3], the fold induction at 1 µM was above 1 and the fold induction at 8 µM is above 1.

`C[C@H](Cc1nncn1C)c1cccc(N2Cc3c(cc(CN4CC[C@](C)(O)C4)cc3C(F)(F)F)C2=O)c1` [Compound 398, 6-(((S)-3-hydroxy-3-methylpyrrolidin-1-yl)methyl)-2-(3-((R)-1-(4-methyl-4H-1,2,4-triazol-3-yl)propan-2-yl)phenyl)-4-(trifluoromethyl)isoindolin-1-one]: in the assay on anergic human T-cells, the fold induction at 0.37 µM was at most 2.5, the fold induction at 1.11 µM is above 4.01 and the fold induction at 10 µM is above 4.01. Also, in the assay on T-cell [3], the fold induction at 1 µM is above 1 and the fold induction at 8 µM is above 1.

Take `C[C@H](Cc1nncn1C)c1cccc(N2Cc3c(cc(CN4CC[C@H](F)C4)cc3C(F)(F)F)C2=O)c1` [Compound 399, 6-(((S)-3-fluoropyrrolidin-1-yl)methyl)-2-(3-((R)-1-(4-methyl-4H-1,2,4-triazol-3-yl)propan-2-yl)phenyl)-4-(trifluoromethyl)isoindolin-1-one]: in the assay with anergic human T-cells, the fold induction at 0.37 µM was above 4.01, the fold induction at 1.11 µM was above 4.01 and the fold induction at 10 µM was above 4.01. For the same compound, in the assay on T-cell [3], the fold induction at 1 µM is above 1 and the fold induction at 8 µM is above 1.

Take `C[C@@H](c1cc2c(c(C(F)(F)F)c1)CN(c1cccc(C3(Cc4nncn4C)COC3)c1)C2=O)N1CC[C@H](F)C1` [Compound 412, 6-((S)-1-((S)-3-fluoropyrrolidin-1-yl)ethyl)-2-(3-(3-((4-methyl-4H-1,2,4-triazol-3-yl)methyl)oxetan-3-yl)phenyl)-4-(trifluoromethyl)isoindolin-1-one]: in the assay on anergic human T-cells, the fold induction at 0.37 µM is at most 2.5, the fold induction at 1.11 µM was above 4.01 and the fold induction at 10 µM was above 4.01. Further, in the assay with T-cell [3], the fold induction at 1 µM is above 1 and the fold induction at 8 µM is above 1.

Take `C[C@H](c1cc2c(c(C(F)(F)F)c1)CN(c1cccc(C3(Cc4nncn4C)COC3)c1)C2=O)N1CC[C@H](F)C1` [Compound 413, 6-((R)-1-((S)-3-fluoropyrrolidin-1-yl)ethyl)-2-(3-(3-((4-methyl-4H-1,2,4-triazol-3-yl)methyl)oxetan-3-yl)phenyl)-4-(trifluoromethyl)isoindolin-1-one]: in the assay on anergic human T-cells, the fold induction at 0.37 µM lay within 2.51 to 4, the fold induction at 1.11 µM was above 4.01 and the fold induction at 10 µM was above 4.01. In addition, in the assay on T-cell [3], the fold induction at 1 µM was above 1 and the fold induction at 8 µM is above 1.

For the compound `Cn1cnnc1CC1(c2cccc(N3Cc4c(cc(CN5CC(F)C5)cc4C(F)(F)F)C3=O)c2)COC1` [Compound 415, 6-((3-fluoroazetidin-1-yl)methyl)-2-(3-(3-((4-methyl-4H-1,2,4-triazol-3-yl)methyl)oxetan-3-yl)phenyl)-4-(trifluoromethyl)isoindolin-1-one], in the assay with anergic human T-cells, the fold induction at 0.37 µM fell in the range of 2.51 to 4, the fold induction at 1.11 µM fell in the range of 2.51 to 4 and the fold induction at 10 µM is above 4.01. In addition, in the assay with T-cell [3], the fold induction at 1 µM is above 1 and the fold induction at 8 µM was above 1.

With `Cn1cnnc1CC1(c2cccc(N3Cc4c(cc(CN5CC[C@H](C#N)C5)cc4C(F)(F)F)C3=O)c2)COC1` [Compound 422, (S)-1-((2-(3-(3-((4-methyl-4H-1,2,4-triazol-3-yl)methyl)oxetan-3-yl)phenyl)-3-oxo-7-(trifluoromethyl)isoindolin-5-yl)methyl)pyrrolidine-3-carbonitrile], in the assay on anergic human T-cells, the fold induction at 0.37 µM was at most 2.5, the fold induction at 1.11 µM lay in the range of 2.51 to 4 and the fold induction at 10 µM is 2.51 to 4. Also, in the assay on T-cell [3], the fold induction at 1 µM is above 1 and the fold induction at 8 µM was above 1.

As to `Cn1cnnc1C(F)(F)[C@](C)(F)c1cccc(N2Cc3c(cc(C(=O)N4CC[C@H](O)C4)cc3C(F)(F)F)C2=O)c1` [Compound 438, 6-((S)-3-hydroxypyrrolidine-1-carbonyl)-2-(3-((R)-1,1,2-trifluoro-1-(4-methyl-4H-1,2,4-triazol-3-yl)propan-2-yl)phenyl)-4-(trifluoromethyl)isoindolin-1-one], in the assay on anergic human T-cells, the fold induction at 0.37 µM was at most 2.5, the fold induction at 1.11 µM was at most 2.5 and the fold induction at 10 µM was above 4.01. Further, in the assay on T-cell [3], the fold induction at 1 µM was 0.801 to 1 and the fold induction at 8 µM is above 1.

In the case of `Cn1cnnc1C(F)(F)[C@](C)(F)c1cccc(N2Cc3c(cc(N4CCNCC4)cc3C(F)(F)F)C2=O)c1` [Compound 442, (R)-6-(Piperazin-1-yl)-2-(3-(1,1,2-trifluoro-1-(4-methyl-4H-1,2,4-triazol-3-yl)propan-2-yl)phenyl)-4-(trifluoromethyl)isoindolin-1-one], in the assay with anergic human T-cells, the fold induction at 0.37 µM was at most 2.5, the fold induction at 1.11 µM is 2.51 to 4 and the fold induction at 10 µM is 2.51 to 4. In the assay on T-cell [3], the fold induction at 1 µM was above 1 and the fold induction at 8 µM was in the range of 0.801 to 1.

For `Cn1cnnc1C(F)(F)[C@](C)(F)c1cccc(N2Cc3c(cc(CN4CC[C@@H](F)C4)cc3C(F)(F)F)C2=O)c1` [Compound 450], in the assay with anergic human T-cells, the fold induction at 0.37 µM was in the range of 2.51 to 4, the fold induction at 1.11 µM is 2.51 to 4 and the fold induction at 10 µM was above 4.01. Also, in the assay on T-cell [3], the fold induction at 1 µM is above 1 and the fold induction at 8 µM is above 1.
